Reference: patent US8691529B2, “Increasing protein production by increasing ABC50 expression or activity” (University Health Network, priority 2009, dated 2014)

Legend:
HL60 cells [1] = test: Apoptosis induction by ER stress agents and etoposide, AnnexinV/PI flow cytometry, HL60 cells; assay type: cell-based, Human; details: 15 μM Ec 2 hours, 200 nM Tg, 1 μM Tu or 5 μM etoposide overnight; for sensitivity to apoptosis induction, ABC50 knockdown vs vector control: HL60 ABC50 knockdown cells; for sensitivity to apoptosis induction, ABC50 overexpressing vs control cells: HL60 ABC50 overexpressing cells
Method: FIG. 3 ABC50 knockdown alters growth rate and sensitivity to Ec in HL60 cells. A: Western blot of ABC50 expression in HL60 cells infected with vector control or ABC50 shRNA. B: Cell growth kinetics of control and ABC50 knocked-down cells. Values are means and standard errors determined from triplicate cultures and is representative measurement from a series of three independent experiments. ***indicates p<0.001 at 48 hours for ABC50 KD cells vs control. C: Apoptosis induction by serum withdrawal (SW), Ec, Tg, Tu and etoposide (Eto) in HL60 vector control and ABC50 knockdown cells. Cells were exposed to 15 μM Ec for 2 hours followed by overnight recovery as described in Materials and Methods. Cells were incubated overnight in the absence of serum, 200 nM Tg, 1 μM Tu or 5 μM etoposide. The following day, cells were stained with PI and AnnexinV and analysed by flow cytometry. AnnexinV positive, PI negative cells represent early apoptotic cells, AnnexinV positive, PI positive cells represent late apoptotic or necrotic cells. Plotted is early and late apoptotic cells combined. *p<0.05, **p<0.01 comparing knockdown or overexpressing cells to their vector control.
FIG. 4 Effect of ABC50 overexpression on growth rate and sensitivity to ER stress agents in HL60 cells. A: Western blot of ABC50 expression in HL60 cells infected with vector control or ABC50 OE vector. B: Cell growth kinetics of control and ABC50 overexpressing cells. Values are means and standard errors determined from triplicate cultures and is representative measurement from a series of three independent experiments. C: Apoptosis induction by serum withdrawal (SW), Ec, Tg, Tu and etoposide (Eto) in HL60 vector control and ABC50 overexpressing cells. Cells were exposed to 15 μM Ec for 2 hours followed by overnight recovery as described in Materials and Methods. Cells were incubated overnight in the absence of serum, 200 nM Tg, 1 μM Tu or 5 μM etoposide. The following day, cells were stained with PI and AnnexinV and analysed by flow cytometry. AnnexinV positive, PI negative cells represent early apoptotic cells, AnnexinV positive, PI positive cells represent late apoptotic or necrotic cells. Plotted is early and late apoptotic cells combined. *p<0.05, **p<0.01 comparing knockdown or overexpressing cells to their vector control.
(§1) To measure apoptosis induced by Econazole (Ec; Sigma-Aldrich, St. Louis, Mo.), cells were treated with Ec in RPMI containing 1% FBS for 2 hours at 37° C. then further incubated overnight in RPMI containing 10% FBS. Apoptosis induced by thapsigargin (Tg; Sigma-Aldrich) or Tunicamycin (Tu; Sigma-Aldrich) was determined after overnight incubation in RPMI containing 1% FBS. The cells were washed with PBS and stained with Annexin V-cy5 Apoptosis Detection kit (Biovision. Inc., Mountain View, Calif.)/PI and analysed by flow cytometry.

sp2 cells = test: Cell viability of Ec-selected sp2 cells, Trypan Blue staining; assay type: cell-based, mouse; details: exposure overnight
Method: FIG. 10. Generation of Ec-resistant sp2 cells. Sp2 cells were exposed to increasing concentrations of Econazole. Cells remaining after treatment were expanded and subjected to additional rounds of selection. A: cell viability for unselected (U) and selected (S) cells. Exposure to Econazole was for 2 hours in low serum medium, followed by a recovery period of 24 hours in full growth medium. Cells were exposed to Thapsigargin (Tg) and Tunicamycin (Tu) overnight. Cell viability was determined by Trypan Blue staining of 200 cells. B: Western blot of ABC50 expression in sp2 cells selected for resistance to Ec showing increased expression. C: Quantitation of expression normalized to actin. **p<0.01, ***p<0.001 comparing selected vs unselected.

[2] = tested on: ser51-phosphorylated eIF2α; test: ER stress response, Western blot of ser51-phosphorylated eIF2α; assay type: cell-based, Human; details: Ec 15 μM, Tg 200 nM, 60 minutes; for levels of phosphorylated eIF2α: ABC50 overexpressing cells, Tu 200 ng/ml; for induction of increased levels of phosphorylated eIF2α: ABC50 knockdown cells vs vector control
Method: FIG. 6. ABC50 knockdown or overexpression alters the ER stress response. Vector controls, knockdown (A, B) or overexpressing cells (C, D) were exposed to Ec (15 μM), Tg (200 nM) or Tu (200 ng/ml) for 60 minutes. The cells were collected, lysed in RIPA buffer, resolved by SDS-PAGE and analysed with anti-sera specific for A, C: ser51-phosphorylated eIF2α or total eIF2α, B, D: BiP or actin. Numbers represent relative expression levels compared to control normalized to either total eIF2α or actin. The blots are representative of two independent experiments.
Cells were washed with PBS and lysed with Triple lysis buffer (50 mM Tris pH7.0, 150 mM NaCl, 0.1% SDS, 1% NP-40 and 0.5% DOC). Proteinase inhibitor (Boehringer) was added to 10 ml lysis buffer before use. Protein concentration was determined with the Pierce BCA kit. 20 μg of total protein was loaded onto 10% SDS-PAGE, transferred onto filters and blotted with rabbit anti-human ABC50 polyclonal serum (kind gift from Dr. C. Proud, Vancouver, Canada). eIF2α and its phosphorylated form (Ser51) were detected with rabbit polyclonal antibodies from Cell Signalling (Danvers, Mass.). Mouse anti-BiP/GRP78 antibodies were obtained from BD Biosciences (San Jose, Calif.) Anti-actin (pan Ab-5, Clone ACTN05) (Labvision/Neomarker, Fremont, Calif.) was used as a loading control.

HL60 cells [3] = test: Global protein synthesis, 3H-leucine incorporation; assay type: cell-based, Human; details: 15 μM Ec for 15 minutes
Method: FIG. 8 Effect of ABC50 knockdown or overexpression on global protein synthesis. Cells were incubated with 15 μM Ec for 15 minutes, pulse-labelled with 3H-leucine and incorporation was measured as described in Materials and Methods. A: Vector control vs ABC50 knock-down. B: Vector control vs ABC50 overexpression. The values are averages and standard errors from 4 replicates. This experiment was repeated six times. *p<0.05, **p<0.01 comparing knockdown or overexpressing cells to their vector control.
Cells (2×10^5/sample) were collected, washed with PBS and then re-suspended in RPMI supplemented with fatty acid-free bovine serum albumin (BSA; 0.05%; Sigma). Cells were treated with Ec (0, 15 μM) for 15 min. After centrifugation (2,500 rpm; 5 min), cells were pulse-labeled with [^3H]-leucine (50 μCi/ml) for 10 min (37° C.; 5% CO2) in leucine-free RPMI. After two washes in RPMI, pellets were lysed with Triton X-100 (0.5% in PBS) followed by trichloroacetic acid (TCA, 10% w/v; 4° C.). Samples were washed in TCA (5% w/v), and the protein pellets were re-suspended in microscintillant (Packard, Conn., USA) and measured using a microplate scintillation counter (Packard).

E2R2 cells = test: Apoptosis induction by Ec, AnnexinV/PI flow cytometry, E2R2 cells; assay type: cell-based, Human; details: 15 μM Ec for 2 hours, overnight recovery
Method: FIG. 2 ABC50 knockdown partially reverses resistance to Ec in E2R2 cells. A: Western blot of ABC50 expression in E2R2 cells infected with vector control or ABC50 shRNA. B: Apoptosis induction by Ec in E2R2 vector control and ABC50 knockdown cells. Cells were exposed to 15 μM Ec for 2 hours followed by overnight recovery as described in Materials and Methods. The following day, cells were stained with PI and AnnexinV and analysed by flow cytometry. AnnexinV positive, PI negative cells represent early apoptotic cells, AnnexinV positive, PI positive cells represent late apoptotic or necrotic cells.
as §1

Molecule | sensitivity to apoptosis induction, ABC50 knockdown vs vector control (HL60 cells [1]) | sensitivity to apoptosis induction, ABC50 overexpressing vs control cells (HL60 cells [1]) | resistance of Ec-resistant sp2 cells (cell viability, selected vs unselected) (sp2 cells) | levels of phosphorylated eIF2α [2] | induction of increased levels of phosphorylated eIF2α [2] | protein synthesis rates after exposure (HL60 cells [3]; ABC50 knock down cells) | protein synthesis level after exposure, compared to control cells (HL60 cells [3]; ABC50 overexpressing cells) | protein synthesis levels after exposure (HL60 cells [3]; vector control cells) | combined early and late apoptosis (E2R2 cells; E2R2 ABC50 knockdown cells) [%] | combined early and late apoptosis (E2R2 cells; E2R2 vector control cells) [%]
Tunicamycin | significantly increased the sensitivity | decreased sensitivity | relatively resistant | reduced levels | – | – | – | – | – | –
COc1cc([C@@H]2c3cc4c(cc3[C@@H](O[C@@H]3O[C@@H]5CO[C@@H](C)O[C@H]5[C@H](O)[C@H]3O)[C@H]3COC(=O)[C@H]23)OCO4)cc(OC)c1O [etoposide] | did not affect sensitivity | unchanged | – | – | – | – | – | – | – | –
C/C=C(/C)C(=O)O[C@H]1C(C)=C2[C@H]([C@@H]1OC(=O)CCCCCCC)[C@@](C)(OC(C)=O)C[C@H](OC(=O)CCC)[C@@]1(O)[C@H]2OC(=O)[C@@]1(C)O [Tg, thapsigargin] | significantly increased the sensitivity | decreased sensitivity | relatively resistant | reduced levels | particularly effective | – | – | – | – | –
Clc1ccc(COC(Cn2ccnc2)c2ccc(Cl)cc2Cl)cc1 (centres unmarked) [Ec, 1-[2-[(4-chlorophenyl)methoxy]-2-(2,4-dichlorophenyl)ethyl]-1H-imidazole] | significantly increased the sensitivity | decreased sensitivity | – | reduced levels | particularly effective | reduced protein synthesis rates even further | significantly less reduced | significant decrease | 21.4 | 7.6
